# Assay results reported in patent publication US20250051338A1, “TYK2 DEGRADERS AND USES THEREOF” (Kymera Therapeutics, Inc., priority 2021, published 2025).
# Assays:
# Format in all cases: cell-based
# TYK2 [1] = target: T1, TYK2 (Homo sapiens, UniProt P29597); experiment: TYK2 degradation MSD assay in human PBMC cells; design: endogenous in cells; host or cells: human PBMC; details: 4 to 24 hours incubation, read-out: TYK2 MSD DC50 rating in human PBMC
# Experimental: (§1) Example 3. TYK2 Degradation MSD Assay in EBV-B, OCI-LY10, and Human PBMC Cells
# (§2) Degradation of TYK2 in cells was quantitatively measured using Meso Scale Discovery (MSD) technology. EBV-B, OCI-LY10 or human PBMC cells were seeded in 96-well plates with a density of 0.4 million cells per well in 100 μl fresh media. Compounds were then added to the assay plates with a final top concentration of 1 to 10 μM in a 1:3 dilution series with total of 9 doses. The assay plates were then incubated for 4 to 24 hours at 37° C. under 5% CO2. The assay plates were then centrifuged for 5 minutes, and the cell pellets were treated with 100 μl/well RIPA lysis buffer (Boston Bioproducts, BP-115D) with protease and phosphatase inhibitors (Roche, 05892791001 and 04906837001). To prepare MSD assay plates (MSD, L15XA), the plates were coated with the capture antibody (Santa Cruz Biotechnology, SC-5271) in PBS, at 40 μl/well. The plates were then incubated overnight at 4° C., washed 3 times with 150 μl/well TBST buffer (Cell Signaling Technology, 9997S) and blocked with 150 μl/well blocking buffer (MSD, R93BA-4). Cell lysates were then added to MSD assay plates and the plates were incubated at room temperature for 1 hour. The plates were then washed 3 times with 150 μl/well TBST buffer and 25 μl/well primary detection antibody (Cell Signaling Technology, #9312). The assay plates were then incubated at room temperature for 1 hour, washed 3 times with 150 μl/well TBST buffer, and 25 μl/well secondary detection antibody, SULFO-TAG anti-rabbit antibody (MSD, R32AB-1) were added. The assay plates were then incubated at room temperature for 1 hour, washed 3 times with 150 μl/well TBST buffer, and 150 μl/well MSD reading buffer (MSD, R92TC-2) were added. The plates were then analyzed by an MSD reader. The data was analyzed by GraphPad Prism and the dose dependent TYK2 degradation was fit using the four-parameter inhibitor vs. response nonlinear regression. The DC50 data were measured and categorized into different levels in Table H. The compound with DC50 less than or equal to 1 nM is marked as A, with DC50 more than 1 nM and less than or equal to 10 nM is marked as B, with DC50 more than 10 nM and less than or equal to 100 nM is marked as C, and with DC50 more than 100 nM or not available is marked as D.
# TYK2 [2] = target: T1, TYK2; experiment: TYK2 degradation MSD assay in EBV-B cells; design: endogenous in cells; host or cells: EBV-B cells; details: 4 to 24 hours incubation, read-out: TYK2 MSD DC50 rating in EBV-B
# Experimental: as §1, §2
# TYK2 [3] = target: T1, TYK2; experiment: TYK2 degradation MSD assay in OCI-LY10 cells; design: endogenous in cells; host or cells: EBV-B cells; details: 4 to 24 hours incubation, read-out: TYK2 MSD DC50 rating in OCI-LY10
# Experimental: as §1, §2
# T1 sequence (P29597 whole entry): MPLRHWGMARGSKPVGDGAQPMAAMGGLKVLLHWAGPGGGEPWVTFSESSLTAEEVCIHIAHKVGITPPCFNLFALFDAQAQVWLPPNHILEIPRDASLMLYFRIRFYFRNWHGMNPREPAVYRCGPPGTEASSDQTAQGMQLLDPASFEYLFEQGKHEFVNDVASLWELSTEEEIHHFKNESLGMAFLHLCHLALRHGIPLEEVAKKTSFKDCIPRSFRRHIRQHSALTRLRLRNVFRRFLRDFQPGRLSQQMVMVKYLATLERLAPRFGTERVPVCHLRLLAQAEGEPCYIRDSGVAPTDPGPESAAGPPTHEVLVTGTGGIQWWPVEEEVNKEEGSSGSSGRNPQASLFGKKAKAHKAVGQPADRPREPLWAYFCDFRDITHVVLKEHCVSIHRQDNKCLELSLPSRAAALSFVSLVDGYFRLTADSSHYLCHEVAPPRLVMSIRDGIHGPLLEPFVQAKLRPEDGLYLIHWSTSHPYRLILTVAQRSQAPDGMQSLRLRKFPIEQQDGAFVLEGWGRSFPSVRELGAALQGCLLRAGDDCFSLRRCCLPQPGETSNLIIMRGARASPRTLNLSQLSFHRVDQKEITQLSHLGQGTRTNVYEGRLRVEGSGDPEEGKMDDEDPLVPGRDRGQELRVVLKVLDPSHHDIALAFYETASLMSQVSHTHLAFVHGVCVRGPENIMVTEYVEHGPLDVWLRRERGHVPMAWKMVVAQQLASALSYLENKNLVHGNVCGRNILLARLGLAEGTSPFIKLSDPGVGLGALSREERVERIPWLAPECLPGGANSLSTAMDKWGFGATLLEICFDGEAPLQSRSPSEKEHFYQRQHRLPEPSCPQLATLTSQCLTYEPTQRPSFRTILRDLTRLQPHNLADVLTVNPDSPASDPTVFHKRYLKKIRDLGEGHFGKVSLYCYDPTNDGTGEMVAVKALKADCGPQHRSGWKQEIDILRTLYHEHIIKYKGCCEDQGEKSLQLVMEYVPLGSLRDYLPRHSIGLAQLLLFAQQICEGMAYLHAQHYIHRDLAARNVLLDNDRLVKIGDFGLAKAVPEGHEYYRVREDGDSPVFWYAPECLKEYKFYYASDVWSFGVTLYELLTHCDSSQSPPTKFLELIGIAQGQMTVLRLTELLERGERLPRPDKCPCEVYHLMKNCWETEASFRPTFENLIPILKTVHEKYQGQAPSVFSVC
SMILES,DC50 (TYK2 [1]) [nM],DC50 (TYK2 [2]) [nM],DC50 (TYK2 [3]) [nM]
CNC(=O)c1cnc(Nc2ccc(C(=O)NCCCCc3cccc4c3n(C)c(=O)n4C3CCC(=O)NC3=O)cn2)cc1Nc1cccc(-c2ncc(F)cn2)c1OC (stereo not drawn) [Example K114],< 1,1 to 10,< 1
CNC(=O)c1cnc(Nc2ccc(C(=O)NCCCCCCc3cccc4c3n(C)c(=O)n4C3CCC(=O)NC3=O)cn2)cc1Nc1cccc(-c2ncc(F)cn2)c1OC (stereo not drawn) [Example K115],< 1,< 1,> 100
CNC(=O)c1cnc(Nc2ccc(C(=O)NCCCCCCCCc3cccc4c3n(C)c(=O)n4C3CCC(=O)NC3=O)cn2)cc1Nc1cccc(-c2ncc(F)cn2)c1OC (stereo not drawn) [Example K116],1 to 10,1 to 10,> 100
CNC(=O)c1cnc(Nc2cc(C(=O)NCCCCc3ccc4c(c3)n(C)c(=O)n4C3CCC(=O)NC3=O)ccn2)cc1Nc1cccc(-c2ncc(F)cn2)c1OC (stereo not drawn) [Example K126],< 1,> 100,> 100
CNC(=O)c1cnc(Nc2cc(C(=O)NCCCCCCc3ccc4c(c3)n(C)c(=O)n4C3CCC(=O)NC3=O)ccn2)cc1Nc1cccc(-c2ncc(F)cn2)c1OC (stereo not drawn) [Example K127],< 1,> 100,> 100
CNC(=O)c1cnc(Nc2cc(C(=O)NCCCCc3cccc4c3n(C)c(=O)n4C3CCC(=O)NC3=O)ccn2)cc1Nc1cccc(-c2ncc(F)cn2)c1OC (stereo not drawn) [Example K128],1 to 10,> 100,> 100
CNC(=O)c1cnc(Nc2cc(C(=O)NCCCCCCCCc3ccc4c(c3)n(C)c(=O)n4C3CCC(=O)NC3=O)ccn2)cc1Nc1cccc(-c2ncc(F)cn2)c1OC (stereo not drawn) [Example K129],< 1,1 to 10,> 100
CNC(=O)c1cnc(Nc2cc(C(=O)NCCCCCCCCc3cccc4c3n(C)c(=O)n4C3CCC(=O)NC3=O)ccn2)cc1Nc1cccc(-c2ncc(F)cn2)c1OC (stereo not drawn) [Example K130],1 to 10,1 to 10,> 100
CNC(=O)c1cnc(Nc2ccc(C(=O)N(C)C3CCN(c4ccc5c(c4)n(C)c(=O)n5C4CCC(=O)NC4=O)CC3)cn2)cc1Nc1ccccc1OC (stereo not drawn) [Example K133],> 100,1 to 10,> 100
CNC(=O)c1cnc(Nc2ccc(CN3CCN(CC4CCN(c5ccc(-c6ccc7c(c6)n(C)c(=O)n7C6CCC(=O)NC6=O)cc5)CC4)CC3)cn2)cc1Nc1cccc(-c2ncc(F)cn2)c1OC (stereo not drawn) [Example K139],< 1,< 1,> 100
CNC(=O)c1cnc(Nc2ccc(CN3CCC(OC4CC(c5cccc6c5n(C)c(=O)n6C5CCC(=O)NC5=O)C4)CC3)cn2)cc1Nc1cccc(-c2ncc(F)cn2)c1OC (stereo not drawn) [Example K141],< 1,> 100,< 1
CNC(=O)c1cnc(Nc2ccc(CN3CCCC4(C3)CN(c3ncc(C#Cc5ccc6c(c5)n(C)c(=O)n6C5CCC(=O)NC5=O)cn3)C4)cn2)cc1Nc1cccc(-c2ncc(F)cn2)c1OC (stereo not drawn) [Example K145],1 to 10,1 to 10,> 100
CNC(=O)c1cnc(Nc2ccc(CN(C)CCCOC3CC(c4ccc5c(c4)n(C)c(=O)n5C4CCC(=O)NC4=O)C3)cn2)cc1Nc1cccc(-c2ncc(F)cn2)c1OC (stereo not drawn) [Example K148],< 1,< 1,> 100
CNC(=O)c1cnc(Nc2ccc(CN3CC4(CCN(c5cccc6c5n(C)c(=O)n6C5CCC(=O)NC5=O)CC4)C3)cn2)cc1Nc1cccc(-c2ncc(F)cn2)c1OC (stereo not drawn) [Example K150],< 1,< 1,> 100
CCNC(=O)c1cnc(Nc2ccc(C(=O)N(C)C3CCN(c4ccc5c(c4)n(C)c(=O)n5C4CCC(=O)NC4=O)CC3)cn2)cc1Nc1cccc(-c2ncc(F)cn2)c1OC (stereo not drawn) [Example K152],> 100,1 to 10,> 100
CNC(=O)c1cnc(Nc2ccc(CN(C)C3CN(c4cccc5c4n(C)c(=O)n5C4CCC(=O)NC4=O)C3)cn2)cc1Nc1cccc(-c2ncc(F)cn2)c1OC (stereo not drawn) [Example K154],< 1,> 100,< 1

# Continued, values first:
DC50 (TYK2 [1]) [nM],DC50 (TYK2 [2]) [nM],DC50 (TYK2 [3]) [nM],SMILES
< 1,< 1,> 100,CNC(=O)c1cnc(Nc2ccc(CN(C)CC3CCN(Cc4cccc5c4n(C)c(=O)n5C4CCC(=O)NC4=O)CC3)cn2)cc1Nc1cccc(-c2ncc(F)cn2)c1OC (stereo not drawn) [Example K134]
< 1,< 1,> 100,CNC(=O)c1cnc(Nc2ccc(CN(C)CC3CCN(c4ccc5c(c4)n(C)c(=O)n5C4CCC(=O)NC4=O)CC3)cn2)cc1Nc1cccc(-c2ncc(F)cn2)c1OC (stereo not drawn) [Example K135]
1 to 10,< 1,> 100,CNC(=O)c1cnc(Nc2ccc(CN3CCC(CC#Cc4cccc5c4n(C)c(=O)n5C4CCC(=O)NC4=O)CC3)cn2)cc1Nc1cccc(-c2ncc(F)cn2)c1OC (stereo not drawn) [Example K136]
< 1,< 1,> 100,CNC(=O)c1cnc(Nc2ccc(CN(C)C3CCN(Cc4cccc5c4n(C)c(=O)n5C4CCC(=O)NC4=O)CC3)cn2)cc1Nc1cccc(-c2ncc(F)cn2)c1OC (stereo not drawn) [Example K137]
< 1,< 1,> 100,CNC(=O)c1cnc(Nc2ccc(CN3CCN(CCc4ccc5c(c4)n(C)c(=O)n5C4CCC(=O)NC4=O)CC3)cn2)cc1Nc1cccc(-c2ncc(F)cn2)c1OC (stereo not drawn) [Example K138]
1 to 10,< 1,> 100,CNC(=O)c1cnc(Nc2ccc(CN3CCC(N4CC(c5ccc6c(c5)n(C)c(=O)n6C5CCC(=O)NC5=O)C4)CC3)cn2)cc1Nc1cccc(-c2ncc(F)cn2)c1OC (stereo not drawn) [Example K140]
1 to 10,< 1,> 100,CNC(=O)c1cnc(Nc2ccc(CN3CC(C)(Cc4ccc5c(c4)n(C)c(=O)n5C4CCC(=O)NC4=O)C3)cn2)cc1Nc1cccc(-c2ncc(F)cn2)c1OC (stereo not drawn) [Example K142]
< 1,> 100,> 100,CNC(=O)c1cnc(Nc2ccc(CN3CCN(C(=O)CCc4ccc5c(c4)n(C)c(=O)n5C4CCC(=O)NC4=O)CC3)cn2)cc1Nc1cccc(-c2ncc(F)cn2)c1OC (stereo not drawn) [Example K143]
< 1,< 1,> 100,CNC(=O)c1cnc(Nc2ccc(CN3CCC4(CC3)CC(Cc3ccc5c(c3)n(C)c(=O)n5C3CCC(=O)NC3=O)C4)cn2)cc1Nc1cccc(-c2ncc(F)cn2)c1OC (stereo not drawn) [Example K144]
< 1,< 1,> 100,CNC(=O)c1cnc(Nc2ccc(CN3CCC(CN4CCC(c5ccc6c(c5)n(C)c(=O)n6C5CCC(=O)NC5=O)CC4)CC3)cn2)cc1Nc1cccc(-c2ncc(F)cn2)c1OC (stereo not drawn) [Example K146]
1 to 10,< 1,> 100,CNC(=O)c1cnc(Nc2ccc(CN3CCC(CN(C)c4ccc5c(c4)n(C)c(=O)n5C4CCC(=O)NC4=O)CC3)cn2)cc1Nc1cccc(-c2ncc(F)cn2)c1OC (stereo not drawn) [Example K147]
> 100,< 1,> 100,CNC(=O)c1cnc(Nc2ccc(CN3CC4(CCN(c5ccc6c(c5)n(C)c(=O)n6C5CCC(=O)NC5=O)CC4)C3)cn2)cc1Nc1cccc(-c2ncc(F)cn2)c1OC (stereo not drawn) [Example K149]
> 100,< 1,> 100,CNC(=O)c1cnc(Nc2ccc(CN3CCC(OCC#Cc4cccc5c4n(C)c(=O)n5C4CCC(=O)NC4=O)CC3)cn2)cc1Nc1cccc(-c2ncc(F)cn2)c1OC (stereo not drawn) [Example K151]
< 1,> 100,< 1,CNC(=O)c1cnc(Nc2ccc(CN(C)C3CN(c4ccc5c(c4)n(C)c(=O)n5C4CCC(=O)NC4=O)C3)cn2)cc1Nc1cccc(-c2ncc(F)cn2)c1OC (stereo not drawn) [Example K153]
< 1,< 1,> 100,CNC(=O)c1cnc(Nc2ccc(CN(C)C3CCN(c4ccc5c(c4)n(C)c(=O)n5C4CCC(=O)NC4=O)CC3)cn2)cc1Nc1cccc(-c2ncc(F)cn2)c1OC (stereo not drawn) [Example K155]
